# According to BindingDB's records for doi:10.1021/bi400413c (Stony Brook University, 2013):
# pKi: −log10 of the molar value.
# Biological target: T1, Enoyl-[acyl-carrier-protein] reductase [NADPH] FabI (Staphylococcus aureus (strain MRSA252), UniProt Q6GI75)
# T1 sequence (Q6GI75 whole entry): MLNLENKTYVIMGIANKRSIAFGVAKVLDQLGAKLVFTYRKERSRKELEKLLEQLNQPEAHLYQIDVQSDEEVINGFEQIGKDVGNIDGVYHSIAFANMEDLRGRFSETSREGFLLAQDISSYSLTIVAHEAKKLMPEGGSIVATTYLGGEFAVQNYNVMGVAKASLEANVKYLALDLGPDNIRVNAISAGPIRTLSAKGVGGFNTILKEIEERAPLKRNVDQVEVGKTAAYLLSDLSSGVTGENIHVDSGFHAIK
# Test: Thermal Shift Assay
# Conditions: pH 7.5
# Method: ThermoFluor experiments were carried out in 96-well plates (Concord) using the CFX96 RealTime PCR Detection system and C1000 Thermal Cycler (BioRad).
row,pKi,Structure (SMILES)
1,9.92,CCCCCCc1ccc(Oc2ccccc2N)c(O)c1
2,9.09,CCCCCCCCc1ccc(Oc2ccccc2)c(O)c1 [5-Octyl-2-phenoxy-phenol]
3,10.22,Oc1cc(Br)ccc1Oc1ccccc1 [5-bromo-2-phenoxylphenol]
4,10.15,CCCc1ccc(Oc2ccccc2)c(O)c1 [PT02]
5,8.85,Oc1cc(F)ccc1Oc1ccccc1 [PT55]
6,9.96,C=CCc1ccc(Oc2ccccc2)c(O)c1 [PT68]
7,10.00,Oc1cc(Cc2ccccc2)ccc1Oc1ccccc1 [PT89]
8,9.30,Cc1ccccc1Oc1ccc(CCc2ccccc2)cc1O [PT162]
9,10.30,N#Cc1ccccc1Oc1ccc(Br)cc1O [PT443]
10,9.00,N#Cc1ccccc1Oc1ccc(F)cc1O [PT446]

row,Structure (SMILES),pKi
1,Oc1ccccc1Oc1ccccc1 [2-phenoxylphenol],7.72
2,CCCCCCc1ccc(Oc2ccccc2)c(O)c1 [5-hexyl-2-phenoxyphenol],11.00
3,CCCCCc1ccc(Oc2ccccc2)c(O)c1 [5-pentyl-2-phenoxylphenol],10.40
4,Cc1ccc(Oc2ccccc2)c(O)c1 [PT53],9.42
